Assays:
human CCR2 receptors = human CCR2 receptors (Homo sapiens, UniProt P41597); test: CCR2 inhibitory activity; assay type: binding; conditions: Receptor CCR2
Description: (§1) The CCR2 and CCR5 inhibitory activity of (4-((3R,4R)-3-methoxytetrahydro-pyran-4-ylamino)piperidin-1-yl)(5-methyl-6-(((2R,6S)-6-(p-tolyl)tetrahydro-2H-pyran-2-yl)methylamino)pyrimidin-4-yl)methanone citrate was evaluated against human CCR2 receptors and human CCR5 receptors.

[1] = Sorption behavior (dynamic vapour sorption isotherms); assay type: physicochemical
Description: Sorption isotherms were generated using an IGAsorp water sorption monitor from Hiden Isochema. Adsorption and desorption isotherms were obtained at 25° C. with 10% r.h. step intervals ranging from 10% r.h. to 90% r.h.
For BR salt form only: Sorption isotherms were registered on a DVS-1 water sorption monitor from Surface Measurement Systems.

human CCR5 receptors = human CCR5 receptors (Homo sapiens, UniProt P51681); test: CCR5 inhibitory activity; assay type: binding; conditions: Receptor CCR5
Chain of human CCR5 receptors (P51681 whole entry): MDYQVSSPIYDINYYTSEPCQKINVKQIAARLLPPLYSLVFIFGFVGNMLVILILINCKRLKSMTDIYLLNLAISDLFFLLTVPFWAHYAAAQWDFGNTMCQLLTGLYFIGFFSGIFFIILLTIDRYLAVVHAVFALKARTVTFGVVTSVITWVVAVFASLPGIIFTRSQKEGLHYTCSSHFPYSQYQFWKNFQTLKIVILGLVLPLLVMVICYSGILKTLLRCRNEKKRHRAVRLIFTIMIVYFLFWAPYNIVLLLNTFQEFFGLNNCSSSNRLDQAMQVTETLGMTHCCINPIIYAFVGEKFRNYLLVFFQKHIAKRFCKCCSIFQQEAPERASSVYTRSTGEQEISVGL
Description: as §1

Chain of human CCR2 receptors (P41597 whole entry): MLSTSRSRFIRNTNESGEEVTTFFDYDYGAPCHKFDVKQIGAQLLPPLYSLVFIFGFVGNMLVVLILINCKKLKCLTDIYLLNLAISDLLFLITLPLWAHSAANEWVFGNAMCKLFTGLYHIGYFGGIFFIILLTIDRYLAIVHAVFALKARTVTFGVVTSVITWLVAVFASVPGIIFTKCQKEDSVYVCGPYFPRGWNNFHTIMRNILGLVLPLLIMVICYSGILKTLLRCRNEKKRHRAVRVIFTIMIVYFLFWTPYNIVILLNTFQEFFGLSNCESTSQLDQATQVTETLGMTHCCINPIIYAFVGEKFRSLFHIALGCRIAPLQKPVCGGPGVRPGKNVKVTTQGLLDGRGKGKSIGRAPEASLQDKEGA

In the case of `CO[C@H]1COCC[C@H]1NC1CCN(C(=O)c2ncnc(NC[C@H]3CCC[C@@H](c4ccc(C)cc4)O3)c2C)CC1.O=C(O)CC(O)(CC(=O)O)C(=O)O` [Compound 1, (4-((3R,4R)-3-Methoxytetrahydro-pyran-4-ylamino)piperidin-1-yl)(5-methyl-6-(((2R,6S)-6-(p-tolyl)tetrahydro-2H-pyran-2-yl)methylamino)pyrimidin-4-yl)methanone citrate], the IC50 (human CCR2 receptors) is reported as 50 nM, the Ki (human CCR2 receptors) is reported as 4.2 nM and the “state of the compound after the sorption experiment” value ([1]; after the sorption experiment) is reported as “still remains as solid material”. For the same compound, the “stability against relative humidity” value ([1]; relative humidity, 25° C.) was “up to 80%”, the uptake of water ([1]; sorption experiment, relative humidity up to 80%, uptake reversible) was 2.6% and the IC50 (human CCR5 receptors) was 88 nM. For the same compound, the Ki (human CCR5 receptors) was 75 nM.
